In US20230321042A1, “COMBINATION THERAPY” (PFIZER INC., priority 2020, published 2023):

Columns and labels:
CDK6/Cyclin D3 = CDK6/Cyclin D3 (Homo sapiens (Human), UniProt Q00534); assay: CDK6/Cyclin D3 mobility shift assay; assay type: biochemical; details: 3.5 mM ATP
Experimental: The mobility shift assay electrophoretically separates the fluorescently labelled peptides (substrate and phosphorylated product) following the kinase reaction. […] Typical reaction solutions contained 2% DMSO (± inhibitor), 2% glycerol, 10 mM MgCl2, 1 mM DTT, 3.5 mM ATP, 0.005% Tween 20 (TW-20), 3 µM 5-FAM-Dyrktide, 4 nM (active sites) activated CDK6/Cyclin D3 in 40 mM HEPES buffer at pH 7.5.
The reaction was stopped after 95 minutes by the addition of 50 µL of 30 mM EDTA. Ki determinations were made from a plot of the fractional velocity as a function of inhibitor concentration fit to the Morrison equation with the enzyme concentration as a variable.

HCC1428 = assay: 7-day anti-proliferation assay (CyQuant Direct) in HCC1428; assay type: cell-based; details: Homo sapiens, 168 h; HCC1428, 7-day
Experimental: (§1) Functional effects of test compounds were measured in a 7-day anti-proliferation assay in three ER+ breast cancer cell lines. Cells were seeded in 96-well plates and allowed to adhere overnight prior to compound treatment.

MCF7 = assay: 7-day anti-proliferation assay (CyQuant Direct) in MCF7; assay type: cell-based; details: Homo sapiens, 168 h; MCF7, 7-day
Experimental: as §1

T47D = assay: 7-day anti-proliferation assay (CyQuant Direct) in T47D; assay type: cell-based; details: Homo sapiens, 168 h
Experimental: as §1

[1] = In vivo study in MCF-7 breast cancer xenograft; details: female, mouse, po, BID, MCF7 xenograft model, NSG mice, read-out: maximum tolerated dose level
Experimental: The MCF7 model was established by implanting passage 0 tumor fragments into recipient mice. To establish the MCF7 donor mice, tumor cells (5 × 10^6 cells/mouse with 50% Cultrex® Basement Membrane Matrix) were subcutaneously implanted in female NSG mice. Once reaching a range of 700 to 800 mm^3, donor tumors were subsequently transplanted into secondary recipient mice for study expansion. […] TGI was assessed on Day 21 post first dose (or Day 42 post tumor fragment implant). […] In the 150 mpk combination group, 50% of mice were found dead or were euthanized by the end of 21 days due to severe anemia.

CDK4/Cyclin D1 = CDK4/Cyclin D1 (Homo sapiens (Human), UniProt P11802); assay: CDK4/Cyclin D1 mobility shift assay; assay type: biochemical; details: 3.5 mM ATP
Sequence of CDK4/Cyclin D1 (P11802 whole entry): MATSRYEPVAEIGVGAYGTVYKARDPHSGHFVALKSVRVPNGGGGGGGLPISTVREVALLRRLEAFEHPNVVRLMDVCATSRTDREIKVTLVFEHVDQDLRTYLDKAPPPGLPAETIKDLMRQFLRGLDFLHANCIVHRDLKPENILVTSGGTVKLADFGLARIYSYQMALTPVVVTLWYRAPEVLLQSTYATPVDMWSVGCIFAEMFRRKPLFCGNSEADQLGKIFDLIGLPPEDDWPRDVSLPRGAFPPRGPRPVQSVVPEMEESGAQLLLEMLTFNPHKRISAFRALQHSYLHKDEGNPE
Sequence of CDK4/Cyclin D1 (P24385 whole entry partner): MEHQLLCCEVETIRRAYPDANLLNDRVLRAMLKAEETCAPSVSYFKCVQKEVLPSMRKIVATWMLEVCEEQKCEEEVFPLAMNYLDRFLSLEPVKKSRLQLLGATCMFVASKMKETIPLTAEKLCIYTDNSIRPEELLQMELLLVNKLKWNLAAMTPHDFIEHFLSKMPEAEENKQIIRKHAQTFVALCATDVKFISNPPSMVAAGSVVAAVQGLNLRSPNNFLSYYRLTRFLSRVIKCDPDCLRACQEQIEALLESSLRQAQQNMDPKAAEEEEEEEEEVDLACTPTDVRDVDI
Experimental: The purpose CDK4/Cyclin D1 assay is to evaluate the inhibition (% inhibition, Kiapp and Ki values) in the presence of small molecule inhibitors by using a fluorescence based microfluidic mobility shift assay. […] The mobility shift assay electrophoretically separates the fluorescently labelled peptides (substrate and phosphorylated product) following the kinase reaction. Both substrate and product are measured and the ratio of these values is used to generate % conversion of substrate to product by the LabChip EZ Reader. […] The reaction was stopped after 195 minutes by the addition of 50 µL of 30 mM EDTA. Ki determinations were made from a plot of the fractional velocity as a function of inhibitor concentration fit to the Morrison equation with the enzyme concentration as a variable.

Sequence of CDK6/Cyclin D3 (Q00534 whole entry): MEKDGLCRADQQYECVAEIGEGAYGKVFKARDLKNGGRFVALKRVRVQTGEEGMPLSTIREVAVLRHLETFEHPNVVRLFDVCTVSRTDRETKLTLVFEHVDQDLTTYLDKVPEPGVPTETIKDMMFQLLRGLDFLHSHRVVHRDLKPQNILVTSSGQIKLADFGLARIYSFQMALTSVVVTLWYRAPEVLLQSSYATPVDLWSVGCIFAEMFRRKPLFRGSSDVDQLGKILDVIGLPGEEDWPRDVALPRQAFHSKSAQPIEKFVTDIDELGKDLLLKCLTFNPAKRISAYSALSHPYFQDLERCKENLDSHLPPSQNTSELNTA
Sequence of CDK6/Cyclin D3 (P30281 whole entry partner): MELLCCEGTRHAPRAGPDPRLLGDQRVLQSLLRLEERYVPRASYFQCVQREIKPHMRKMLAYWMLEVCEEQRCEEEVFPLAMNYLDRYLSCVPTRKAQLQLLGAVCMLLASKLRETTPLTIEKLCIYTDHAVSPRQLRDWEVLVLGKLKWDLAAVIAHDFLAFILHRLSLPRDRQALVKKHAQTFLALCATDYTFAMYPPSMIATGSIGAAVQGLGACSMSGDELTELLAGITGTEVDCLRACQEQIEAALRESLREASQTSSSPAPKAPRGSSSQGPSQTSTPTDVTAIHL

SMILES	Ki (CDK6/Cyclin D3)	EC50 (HCC1428)	EC50 (MCF7)	EC50 (T47D)	MTD at 21 days [1]	Ki (CDK4/Cyclin D1)
COCc1cc(C(=O)Nc2cc([C@H]3CC[C@@H](OC(=O)NC(C)C)C3)[nH]n2)n(C)n1 [COMPOUND A, (1R,3S)-3-[3-({[3-(methoxymethyl)-1-methyl-1H-pyrazol-5-yl]carbonyl}amino)-1H-pyrazol-5-yl]cyclopentyl propan-2-ylcarbamate]	0.465 µM	> 1000 nM	386 nM	403 nM	150 mg/kg	–
CC[C@H](C)NC(=O)O[C@@H]1CC[C@H](c2cc(NC(=O)Cc3ccccc3S(C)(=O)=O)n[nH]2)C1 [COMPOUND B, (1R,3S)-3-[3-({[2-(methylsulfonyl)phenyl]acetyl}amino)-1H-pyrazol-5-yl]cyclopentyl (2S)-butan-2-ylcarbamate]	0.254 µM	790 nM	190 nM	220 nM	–	0.107 µM
CCCNC(=O)O[C@@H]1CC[C@H](c2cc(NC(=O)Cc3ccnc(OC)c3)n[nH]2)C1 [COMPOUND C, (1R,3S)-3-(3-{[(2-methoxypyridin-4-yl)acetyl]amino}-1H-pyrazol-5-yl)cyclopentyl propylcarbamate]	0.215 µM	710 nM	336 nM	443 nM	–	0.149 µM
CC(=O)c1c(C)c2cnc(Nc3ccc(N4CCNCC4)cn3)nc2n(C2CCCC2)c1=O [Palbociclib, 6-acetyl-8-cyclopentyl-5-methyl-2-(5-piperazin-1-yl-pyridin-2-ylamino)-8H-pyrido[2,3-d]pyrimidin-7-one, reference compound]	–	355 nM	79 nM	87 nM	–	–
